Reference: a melting point compilation (Tetko et al.)

Details: a range is the spread between reports

| melting point [°C] | Compound |
| --- | --- |
| 127 to 129 | O=C(C=NO)c1ccccc1 |
| 103 to 107 | COc1cccc(C(=O)O)c1 |
| 248 to 249 | O=C(O)C=Cc1ccc(Cl)cc1 |
| 123 to 124 | O=C(O)CCCc1c[nH]c2ccccc12 |
| 80 to 84 | Oc1ccc(Oc2ccccc2)cc1 |
| 106 to 107 | Oc1ccc(Cl)c(O)c1 |
| 210 to 216 | O=C(O)c1cc(-c2ccc(F)cc2F)ccc1O |
| 132 to 134 | Oc1cccc(O)c1O |
| -3 to -1.2 | CC(=O)C(C)=O |
| 56 to 60 | Cc1cc(C)c(C)c(Br)c1C |
| 171 to 173 | CC(=O)c1ccc(O)c(O)c1O |
| 90 to 93.5 | CC(=CC(=O)O)C(=O)O |
| 40 to 40.5 | CC(=O)Oc1ccccc1[N+](=O)[O-] |
| 9.5 to 10 | Cc1ccnc2ccccc12 |
| 132 to 135 | CC1(C)C(=O)N(Cl)C(=O)N1Cl |
| 24 to 25 | NCC1CCNCC1 |
| 164 to 169 | Cc1cc(N)c2ccccc2n1 |
| 125 to 128 | Nc1ncccn1 |
| 63.4 to 65 | Clc1cc(Cl)cc(Cl)c1 |
| 112 to 115 | O=[N+]([O-])c1ccc(O)cc1 |
| 152 to 154 | CC(=O)Nc1ccc(F)cc1 |
| 170 to 173 | O=C(NNc1ccccc1)NNc1ccccc1 |
| 125 to 129 | O=Cc1cc([N+](=O)[O-])ccc1O |
| 270 to 273 | CS(=O)(=O)c1ccc(C(=O)O)cc1 |
| 141 to 143 | O=C(O)c1c(F)cc(F)cc1F |

| melting point [°C] | Compound |
| --- | --- |
| 104 to 108 | O=Cc1cccc(O)c1 |
| 169 to 170 | O=C1CSC(=S)N1 |
| 143 to 144 | COc1cc(CC(=O)O)ccc1O |
| 268 to 270 | Cc1ccc2c(c1[N+](=O)[O-])C(=O)c1ccccc1C2=O |
| 141 to 142 | COC(=O)c1ccc(C(=O)OC)cc1 |
| 144 to 146 | O=C(CCC(=O)c1ccccc1)c1ccccc1 |
| 235 to 239 | Nc1ccc2cc3ccccc3cc2c1 |
| 70 to 72 | O=C(c1ccccc1)c1ccncc1 |
| 77 to 79 | N#Cc1c(F)c(F)c(F)c(C#N)c1F |
| 77 to 78 | CCNC(=S)NCC |
| 121 to 122 | O=C(O)c1cc(F)cc(F)c1 |
| -144 | CCC1(C)CCCC1 |
| 186 | O=C(O)CCC(=O)c1ccc(-c2ccccc2)cc1 |
| 120 to 121 | COc1cc(OC)c(C=O)c(OC)c1 |
| 172 to 173 | CC(CCC(=O)O)(c1ccc(O)cc1)c1ccc(O)cc1 |
| 82 to 82.5 | O=C1c2ccccc2C(=O)N1CCBr |
| 9.8 to 10 | Cc1cc(C)cc(N)c1 |
| -53 to -50 | CC1CCC2CC1C2(C)C (stereo not drawn) |
| 146 to 147 | COc1cc(Cl)ccc1C(=O)O |
| 1 to 2 | CCOC(=O)c1ccccn1 |
| 152 to 155 | CC(=O)Nc1cccc([N+](=O)[O-])c1 |
| 90 to 91 | c1ccc(-c2cccc(-c3ccccn3)n2)nc1 |
| 44.5 to 48 | Oc1ccc(F)cc1 |
| -71 to -70.9 | CCc1ccc(C)nc1 |
| 25 to 26 | CC1(O)CCCCC1 |

| melting point [°C] | Compound |
| --- | --- |
| 53 to 54.5 | Nc1ccc(C2CCCCC2)cc1 |
| 100 to 103 | Nc1ccc(Cl)c([N+](=O)[O-])c1 |
| -41.4 to -41 | Cc1cccc(C(C)(C)C)c1 |
| 108 to 109 | C=CCc1ccccc1OCC(O)CNC(C)C (stereo not drawn) |
| 101 to 102 | COc1ccc2c(c1OC)C(=O)OC2 |
| 115 | COC(=O)c1ccc(I)cc1 |
| 118 to 119 | CC(C)c1ccc(C(=O)O)cc1 |
| 108 to 111 | c1ccc2c(c1)Cc1ccccc1C2 |
| 65 to 66 | N#Cc1ccc2ccccc2c1 |
| 221 to 222 | CC1=NNC(=O)C1 |
| 88 to 89 | CC(=O)Oc1ccc(-c2ccccc2)cc1 |
| 92 to 94 | CCOC(=O)c1cc([N+](=O)[O-])cc([N+](=O)[O-])c1 |
| 180 to 181 | Oc1c(Cl)cc(Cl)c2cccnc12 |
| 89 to 90.5 | O=C1C=CC(=O)N1c1ccccc1 |
| 138 to 142 | CC(=O)NC(=O)CN |
| 73 to 75.5 | COC(=O)c1cc2ccccc2cc1O |
| -48 to -47.8 | Cc1cccc(Cl)c1 |
| 15 to 20 | COc1ccc(OC)c(C)c1 |
| -99 to -96 | CCCC=O |
| 32 to 33 | c1csc(-c2cccs2)c1 |
| 194 to 195 | O=P(O)(c1ccccc1)c1ccccc1 |
| -63.4 to -63 | Cc1cccs1 |
| 53 to 54 | OCc1ccncc1 |
| 95 to 96 | COC(=O)c1ccc([N+](=O)[O-])cc1 |
| 131 to 132 | CN1C(=O)C(=O)c2ccccc21 |

| melting point [°C] | Compound |
| --- | --- |
| -25.4 to -25 | Cc1cccc(C)c1C |
| 176 | Cc1nc2ccccc2[nH]1 |
| 214 to 216 | Nc1cc(C(=O)O)ccc1Cl |
| 36 to 37 | Nc1cccc(Oc2ccccc2)c1 |
| 18 to 19.5 | Cc1ccccc1-c1ccccc1C |
| 83 to 86 | CC(=O)c1ccc(I)cc1 |
| -8 to -7.5 | Nc1ccc(F)cc1F |
| 188 to 189 | Nc1ccc(O)cc1 |
| 138 to 139 | Oc1nc2ccccc2s1 |
| 41 to 41.5 | Brc1cncc2ccccc12 |
| 142 to 143 | O=C1Cc2ccccc2C(=O)O1 |
| 223 to 228 | NC(=O)c1ccc(-c2ccccc2)cc1 |
| 83 to 84 | O=C1c2ccccc2-c2ccccc21 |
| 144 to 146 | CC(=O)c1ccc(O)cc1O |
| 31.5 to 32 | O=S1(=O)CCCO1 |
| 3 to 3.66 | Cc1ccncc1 |
| 102 to 104 | NNc1cc(Cl)ccc1Cl |
| 123 to 126 | C(=C\c1ccccc1)/c1ccccc1 |
| 87 to 89 | COc1ccccc1OC(=O)Oc1ccccc1OC |
| 173 to 176 | O=[N+]([O-])c1ccc(I)cc1 |
| 181 to 186 | CN(C)CC(=O)O |
| -45 to -44.8 | C#Cc1ccccc1 |
| 26 to 27 | Cc1ccc(F)cc1[N+](=O)[O-] |
| 43.5 to 44 | CCOC(=O)c1ccc(OC)c(OC)c1 |

Further lines, the molecule ahead of its results:

| Compound | melting point [°C] |
| --- | --- |
| OCC(F)(F)F | -44 to -43.5 |
| CCCCCCCCCCCCCCCCCCCCCCCCCCC | 59 to 59.5 |
| Nc1ccccc1[N+](=O)[O-] | 71 to 73 |
| CCCCCCCCCCCCC=O | 14 to 15 |
| C[Si]1(C)O[Si](C)(C)O[Si](C)(C)O[Si](C)(C)O1 | 17.5 to 18 |
| Clc1ccccc1C(Cl)(Cl)Cl | 29 to 30 |
| O=C(Cl)c1ccc(F)cc1 | 9 to 10 |
| CC=C(C)CC | -138 to -135 |
| Brc1ccccc1 | -31 to -30.6 |
| CC(C)=NO | 61 to 62 |
| O=C(O)CCCCCBr | 34 to 35 |
| CC(C)c1ccc(O)cc1 | 60 to 62.3 |
| CC(=O)NBr | 104 |
| CC(C)C(C)C(C)C | -110 to -109 |
| CCCCC(CC)COC(=O)CCCCC(=O)OCC(CC)CCCC (stereo not drawn) | -67.8 to -67 |
| ClCC(Cl)CCl | -15 to -14 |
| CCOCC | -116 |
| CC(CCC(=O)O)CC(=O)O (stereo not drawn) | 100 to 101 |
| COCOC | -105 |
| O=Cc1ccccc1 | -56.9 to -55.6 |
| O=C(O)C(F)(F)Cl | 22 to 25 |
| Cc1cc(C)c(C)c(CCl)c1C | 69.5 to 70.5 |
| O=[N+]([O-])c1ccc(Cl)c(Cl)c1 | 39 to 43 |

| Compound | melting point [°C] |
| --- | --- |
| CNC(=O)Oc1ccccc1OC(C)C | 90 to 91.5 |
| O=[N+]([O-])c1ccc(Cl)c([N+](=O)[O-])c1 | 50 to 53 |
| Nc1ccc([N+](=O)[O-])cc1[N+](=O)[O-] | 176 to 180 |
| c1ccc(-c2cnc(-c3ccc(-c4ncc(-c5ccccc5)o4)cc3)o2)cc1 | 242 to 245 |
| Cc1ccc(Cl)cc1[N+](=O)[O-] | 36 to 39 |
| Cc1cccc(N)c1C | 2 to 3 |
| CCOC(=O)CC(C)=O | -45 to -43 |
| CN | -93.4 to -93 |
| CC=CC(C)CC (stereo not drawn) | -126 |
| CC(NC(=O)OC(C)(C)C)C(=O)O (stereo not drawn) | 79.5 to 82 |
| c1ccc(-c2ccccc2-c2ccccc2)cc1 | 56 to 57 |
| Cc1ccc2cc3c(ccc4ccccc43)c3c2c1CC3 | 180 |
| Clc1ccc(-c2ccccc2)cc1 | 78 to 78.8 |
| CC(Br)CCCBr (stereo not drawn) | -34.4 to -34 |
| CCCCCCCCCCCCCCCCS | 19 to 21 |
| CC(C)(Cl)Cl | -34 to -33.8 |
| FC(F)(F)F | -184 |
| CC(C)CCCl | -104 |
| Sc1ccccn1 | 127 to 129 |
| O=S(=O)(F)F | -136 |
| Nc1ccccc1C(=O)O | 144 to 147 |
| O=P(O)(Oc1ccccc1)Oc1ccccc1 | 66 to 67.5 |
| ClC(Cl)C(Cl)Cl | -44 to -43 |

| Compound | melting point [°C] |
| --- | --- |
| Cc1ccc([N+](=O)[O-])cc1N | 106 to 108 |
| CCCCCC(C)(C)O | -50.4 to -50 |
| CCS | -148 |
| CCCCCCC#N | -64 to -63 |
| O=[N+]([O-])c1ccccc1CCl | 47 to 51 |
| C=CC(N)=O | 84 to 84.5 |
| CC(C)COC(=O)C(C)C | -81 to -80 |
| C1CC[C@H]2CCCC[C@H]2C1 | -43 to -42.9 |
| O=Cc1ccc(-c2ccccc2)cc1 | 59 to 60 |
| CC(C)(C)CCC(C)(C)C | -13 to -12.6 |
| C/C=C/CC(C)C | -124 |
| O=Cc1ccc2c(c1)OCO2 | 36 to 37 |
| N#CC(C#N)=C(C#N)C#N | 198 to 199 |
| C1=Cc2cccc3cccc1c23 | 91 to 92.5 |
| NCCNCCN | -40 to -35 |
| O=NN1CN2CN(C1)CN(N=O)C2 | 204 to 207 |
| CCC(CC)(CC)CC | -33.1 to -33 |
| CCOc1ccc(N)cc1 | 2.4 to 4 |
| CCOC(=O)C(O)(c1ccc(Cl)cc1)c1ccc(Cl)cc1 | 36 to 37 |
| C=CC(=C)C | -146 |
| CC12CCC(=O)C=C1CCC1C2CCC2(C)C1CCC2(C)O (stereo not drawn) | 163 to 164 |
| ClCC(CCl)(CCl)CCl | 95 to 97 |
| Nc1c(Br)cc([N+](=O)[O-])cc1[N+](=O)[O-] | 152 to 154 |
